Laboratory results from patent US20100227921A1, “AMINO ACID AND PEPTIDE CARBAMATE PRODRUGS OF […] USES THEREOF” (SHIRE LLC, priority 2009, published 2010).
Where “and” joins values, the source holds several entries; their conditions need not be identical. Equal values may be shown once. Read-outs that look alike come from different tables or passages of the source. Marks after values point to notes of the source that are not given here.

Key:
[1] = Comparative in vivo bioavailability study in the dog (oral gavage, plasma LC-MS-MS)
Experimental: Test substances (i.e., tapentadol (1 mg/kg) and tapentadol valine carbamate (0.8 mg tapentadol base equivalents/kg)) were administered by oral gavage to a group of five dogs (dog nos. 1, 2, 3, 4 and 5) in a two-way crossover design. The characteristics of the test animals are set out in Table 3.
(§1) Blood samples were taken at various times after administration and submitted to analysis for the parent drug and pro-drug using a validated LC-MS-MS assay. Pharmacokinetic parameters derived from the plasma analytical data were determined using Win Nonlin.

[2] = tested on: guinea pig small intestine myenteric plexus longitudinal muscle; test: Electrical field stimulation response of isolated guinea pig small intestine smooth muscle (ex vivo); conditions: isolated guinea pig ileum
Experimental: Strips of guinea pig small intestine myenteric plexus longitudinal muscle and mounted between platinum ring electrodes. The tissue was stretched to a steady tension of about 1 g and changes in force production were recorded using sensitive transducers.
The optimal voltage for stimulation was determined while the tissue was paced with electrical field stimulation (EFS) at 14 Hz, with a pulse width of 0.5 msec (Trains of pulses for 20 seconds, every 50 seconds).
EFS at optimal voltage continued throughout the protocol (stable responses=“baseline measurement of EFS”).
The 3 test conditions employed were as follows:
(1) Vehicle (deionised water, added at equivalent volume additions to test articles), (2) Tapentadol at 6 concentrations (10 nM, 100 nM, 1 μM, 3 μM, 10 μM & 30 μM) (3) Tapentadol valine carbamate at 6 concentrations (10 nM, 100 nM, 1 μM, 3 μM, 10 μM, & 30 μM).
Following 10 minutes of baseline EFS, first addition of test article or vehicle (deionized water) was performed.
Test concentrations were added in a non-cumulative manner with PSS washes between each addition. Next, TTX (Na+ channel blocker) was added to confirm EFS responses were elicited via nerve stimulation. EFS was then stopped.

[3] = Comparative bioavailability after oral administration to rats (plasma LC-MS-MS); assay type: in vivo
Experimental: Test substances, i.e., tapentadol or tapentadol valine carbamate were administered by oral gavage to groups of male Sprague Dawley rats.
as §1

[4] = Comparative bioavailability after oral or intravenous administration to monkeys (plasma LC-MS-MS); assay type: in vivo, cynomolgus monkey; conditions: male monkey, i.v. tapentadol valine carbamate 0.5 mg tapentadol free base equiv/kg, individual animals 1-5
Experimental: Test substances i.e., tapentadol and tapentadol valine carbamate were administered (either intravenously or orally) to a group of five male cynomolgus monkeys in a three way crossover design. The oral doses were given at 1 mg tapentadol base equivalents/kg while the intravenous dose was 0.5 mg/kg
Blood samples were taken at various times after administration and submitted to analysis for the parent drug and tapentadol valine carbamate using a validated LC-MS-MS assay. Pharmacokinetic parameters derived from the plasma analytical data were determined using Win Nonlin.

[5] = oral tapentadol valine carbamate 0.8 mg tapentadol base equiv/kg, individual dogs 1-5
[6] = male rat, oral tapentadol valine carbamate 10 mg tapentadol free base equiv/kg, individual animals 6-10

CC[C@H](c1cccc(OC(=O)N[C@H](C(=O)O)C(C)C)c1)[C@H](C)CN(C)C (racemic) [Tapentadol valine carbamate, 2-[3-(3-Dimethylamino-1-ethyl-2-methyl-propyl)-phenoxycarbonylamino]-3-methyl-butyric acid]
half-life ([1]; Beagle, plasma, po, 0.8 mg/kg, oral tapentadol valine carbamate 0.8 mg tapentadol base equiv/kg, calculated as ln2/mean k, read-out: t½ of tapentadol valine carbamate (converted)): 4.8 h
Cmax ([1]; Beagle, plasma, po, 0.8 mg/kg, oral tapentadol valine carbamate 0.8 mg tapentadol base equiv/kg, individual dogs 1-5, read-out: Cmax of tapentadol valine carbamate): 42.8 ng/mL
AUC ([1]; Beagle, plasma, po, 0.8 mg/kg, oral tapentadol valine carbamate 0.8 mg tapentadol base equiv/kg, mean of 5 dogs, read-out: AUC of tapentadol valine carbamate): 205 ng·h/mL
AUC(0-t) ([1]; Beagle, plasma, po, 0.8 mg/kg, oral tapentadol valine carbamate 0.8 mg tapentadol base equiv/kg, mean of 5 dogs, read-out: AUCt of tapentadol valine carbamate): 192 ng·h/mL
Cmax ([1]; Beagle, plasma, po, 0.8 mg/kg, oral tapentadol valine carbamate 0.8 mg tapentadol base equiv/kg, mean of 5 dogs, read-out: Cmax of tapentadol valine carbamate): 53.4 ng/mL
Tmax ([1]; Beagle, plasma, po, 0.8 mg/kg, oral tapentadol valine carbamate 0.8 mg tapentadol base equiv/kg, median of 5 dogs, read-out: Tmax of tapentadol valine carbamate): 1 h
increase of duration of sustainment of active drug in the blood ([1]; following administration of the prodrug compared to tapentadol alone): two to three fold
duration of drug sustainment in plasma ([1]; oral prodrug vs oral tapentadol): doubling
AUC of tapentadol valine carbamate [1, 5]: 157 ng·h/mL and 126 ng·h/mL and 272 ng·h/mL and 221 ng·h/mL and 252 ng·h/mL
AUCt of tapentadol valine carbamate [1, 5]: 131 ng·h/mL and 119 ng·h/mL and 260 ng·h/mL and 208 ng·h/mL and 241 ng·h/mL
Cmax of tapentadol valine carbamate [1, 5]: 45.3 ng/mL and 62.3 ng/mL and 46.4 ng/mL and 70.0 ng/mL
T>50%Cmax of tapentadol valine carbamate [1, 5]: 1.5 h (4×) and 0.5 h
Tmax of tapentadol valine carbamate [1, 5]: 2 h
t½ of tapentadol valine carbamate [1, 5]: 6.7 h and 3.0 h and 5.0 h and 5.9 h and 5.3 h
T>50%Cmax of tapentadol valine carbamate ([1]; oral tapentadol valine carbamate 0.8 mg tapentadol base equiv/kg, median of 5 dogs): 1.5^a h
EC50 ([2]; Cavia porcellus, EFS 14 Hz, non-cumulative 10 nM-30 μM, read-out: approximate EC50, effect on electrical field stimulation response): ~10 µM
reduction in the opioid effects on ileal smooth muscle compared to tapentadol ([2]; EFS): 50 fold
concentration at 0.5 h ([3]; Sprague Dawley, plasma, male rat, oral tapentadol valine carbamate 10 mg tapentadol free base equiv/kg, 0.5 h, individual animals 6-10, read-out: Plasma concentration of tapentadol valine carbamate): 64.5 ng/mL
concentration at 1 h ([3]; Sprague Dawley, plasma, male rat, oral tapentadol valine carbamate 10 mg tapentadol free base equiv/kg, 1 h, individual animals 6-10, read-out: Plasma concentration of tapentadol valine carbamate): 72.4 ng/mL
concentration at 2 h ([3]; Sprague Dawley, plasma, male rat, oral tapentadol valine carbamate 10 mg tapentadol free base equiv/kg, 2 h, individual animals 6-10, read-out: Plasma concentration of tapentadol valine carbamate): 85.8 ng/mL
concentration at 4 h ([3]; Sprague Dawley, plasma, male rat, oral tapentadol valine carbamate 10 mg tapentadol free base equiv/kg, 4 h, individual animals 6-10, read-out: Plasma concentration of tapentadol valine carbamate): 42.5 ng/mL
concentration at 6 h ([3]; Sprague Dawley, plasma, male rat, oral tapentadol valine carbamate 10 mg tapentadol free base equiv/kg, 6 h, individual animals 6-10, read-out: Plasma concentration of tapentadol valine carbamate): 30.5 ng/mL
Plasma concentration of tapentadol valine carbamate ([3]; male rat, oral tapentadol valine carbamate 10 mg tapentadol free base equiv/kg, 0.5 h, individual animals 6-10): 79.5 ng/mL and 86.5 ng/mL and 77.5 ng/mL and 111 ng/mL
Plasma concentration of tapentadol valine carbamate ([3]; male rat, oral tapentadol valine carbamate 10 mg tapentadol free base equiv/kg, 1 h, individual animals 6-10): 73.8 ng/mL and 88.9 ng/mL and 83.1 ng/mL and 115 ng/mL
Plasma concentration of tapentadol valine carbamate ([3]; male rat, oral tapentadol valine carbamate 10 mg tapentadol free base equiv/kg, 2 h, individual animals 6-10): 57.3 ng/mL and 106 ng/mL and 76.4 ng/mL and 86.6 ng/mL
Plasma concentration of tapentadol valine carbamate ([3]; male rat, oral tapentadol valine carbamate 10 mg tapentadol free base equiv/kg, 3 h, individual animals 6-10): 76.7 ng/mL and 71.6 ng/mL and 74.8 ng/mL and 34.5 ng/mL and 86.4 ng/mL
Plasma concentration of tapentadol valine carbamate ([3]; male rat, oral tapentadol valine carbamate 10 mg tapentadol free base equiv/kg, 4 h, individual animals 6-10): 46.7 ng/mL and 47.0 ng/mL and 27.5 ng/mL and 51.6 ng/mL
Plasma concentration of tapentadol valine carbamate ([3]; male rat, oral tapentadol valine carbamate 10 mg tapentadol free base equiv/kg, 6 h, individual animals 6-10): 19.9 ng/mL and 38.9 ng/mL and 22.7 ng/mL and 31.3 ng/mL
Plasma concentration of tapentadol valine carbamate ([3]; male rat, oral tapentadol valine carbamate 10 mg tapentadol free base equiv/kg, 8 h, individual animals 6-10): 32.7 ng/mL and 14.6 ng/mL and 26.5 ng/mL and 21.3 ng/mL and 25.4 ng/mL
Plasma concentration of tapentadol valine carbamate ([3]; male rat, oral tapentadol valine carbamate 10 mg tapentadol free base equiv/kg, 12 h, individual animals 6-10): 9.49 ng/mL and 27.0 ng/mL and 11.4 ng/mL and 5.81 ng/mL and 14.5 ng/mL
Plasma concentration of tapentadol valine carbamate ([3]; male rat, oral tapentadol valine carbamate 10 mg tapentadol free base equiv/kg, 24 h, individual animals 6-10): 2.00 ng/mL and 0.915 ng/mL and 0.801 ng/mL and 0.656 ng/mL and 0.548 ng/mL
AUCt of tapentadol valine carbamate [3, 6]: 599 ng·h/mL and 615 ng·h/mL and 413 ng·h/mL and 650 ng·h/mL
Cmax of tapentadol valine carbamate [3, 6]: 79.5 ng/mL and 106 ng/mL and 83.1 ng/mL and 115 ng/mL
T>50%Cmax of tapentadol valine carbamate [3, 6]: 2.5 h (2×) and 3.5 h (2×) and 1.5 h
Tmax of tapentadol valine carbamate [3, 6]: 2 h
t½ of tapentadol valine carbamate [3, 6]: 3.83 h and 3.16 h and 3.60 h and 3.06 h
T>50%Cmax of tapentadol valine carbamate ([3]; male rat, oral tapentadol valine carbamate 10 mg tapentadol free base equiv/kg, median): 2.5^a h
Peak plasma levels of tapentadol compared with those after administration of the parent drug ([3]; male rat, oral, 10 mg tapentadol free base equiv/kg): somewhat lower
concentration at 0.5 h ([3]; male, Sprague Dawley, rat, plasma, po, 10 mg tapentadol free base equiv/kg, oral tapentadol valine carbamate 10 mg tapentadol free base equiv/kg, 0.5 h, mean, read-out: Plasma concentration of tapentadol valine carbamate): 83.8 ng/mL
concentration at 1 h ([3]; male, Sprague Dawley, rat, plasma, po, 10 mg tapentadol free base equiv/kg, oral tapentadol valine carbamate 10 mg tapentadol free base equiv/kg, 1 h, mean, read-out: Plasma concentration of tapentadol valine carbamate): 86.6 ng/mL
concentration at 2 h ([3]; male, Sprague Dawley, rat, plasma, po, 10 mg tapentadol free base equiv/kg, oral tapentadol valine carbamate 10 mg tapentadol free base equiv/kg, 2 h, mean, read-out: Plasma concentration of tapentadol valine carbamate): 82.4 ng/mL
concentration at 3 h ([3]; male, Sprague Dawley, rat, plasma, po, 10 mg tapentadol free base equiv/kg, oral tapentadol valine carbamate 10 mg tapentadol free base equiv/kg, 3 h, mean, read-out: Plasma concentration of tapentadol valine carbamate): 68.8 ng/mL
concentration at 4 h ([3]; male, Sprague Dawley, rat, plasma, po, 10 mg tapentadol free base equiv/kg, oral tapentadol valine carbamate 10 mg tapentadol free base equiv/kg, 4 h, mean, read-out: Plasma concentration of tapentadol valine carbamate): 43.1 ng/mL
concentration at 6 h ([3]; male, Sprague Dawley, rat, plasma, po, 10 mg tapentadol free base equiv/kg, oral tapentadol valine carbamate 10 mg tapentadol free base equiv/kg, 6 h, mean, read-out: Plasma concentration of tapentadol valine carbamate): 28.7 ng/mL
concentration at 8 h ([3]; male, Sprague Dawley, rat, plasma, po, 10 mg tapentadol free base equiv/kg, oral tapentadol valine carbamate 10 mg tapentadol free base equiv/kg, 8 h, mean, read-out: Plasma concentration of tapentadol valine carbamate): 24.1 ng/mL
concentration at 12 h ([3]; male, Sprague Dawley, rat, plasma, po, 10 mg tapentadol free base equiv/kg, oral tapentadol valine carbamate 10 mg tapentadol free base equiv/kg, 12 h, mean, read-out: Plasma concentration of tapentadol valine carbamate): 13.6 ng/mL
concentration at 24 h ([3]; male, Sprague Dawley, rat, plasma, po, 10 mg tapentadol free base equiv/kg, oral tapentadol valine carbamate 10 mg tapentadol free base equiv/kg, 24 h, mean): 0.984 ng/mL
half-life ([3]; male, Sprague Dawley, rat, plasma, po, 10 mg tapentadol free base equiv/kg, oral tapentadol valine carbamate 10 mg tapentadol free base equiv/kg, calculated as ln2/mean k, read-out: t½ of tapentadol valine carbamate (converted)): 3.54 h
AUC(0-t) ([3]; male, Sprague Dawley, rat, plasma, po, 10 mg tapentadol free base equiv/kg, oral tapentadol valine carbamate 10 mg tapentadol free base equiv/kg, individual animals 6-10, read-out: AUCt of tapentadol valine carbamate): 560 ng·h/mL
Cmax ([3]; male, Sprague Dawley, rat, plasma, po, 10 mg tapentadol free base equiv/kg, oral tapentadol valine carbamate 10 mg tapentadol free base equiv/kg, individual animals 6-10, read-out: Cmax of tapentadol valine carbamate): 85.8 ng/mL
half-life ([3]; male, Sprague Dawley, rat, plasma, po, 10 mg tapentadol free base equiv/kg, oral tapentadol valine carbamate 10 mg tapentadol free base equiv/kg, individual animals 6-10, read-out: t½ of tapentadol valine carbamate (converted)): 4.08 h
AUC(0-t) ([3]; male, Sprague Dawley, rat, plasma, po, 10 mg tapentadol free base equiv/kg, oral tapentadol valine carbamate 10 mg tapentadol free base equiv/kg, mean, read-out: AUCt of tapentadol valine carbamate): 567 ng·h/mL
Cmax ([3]; male, Sprague Dawley, rat, plasma, po, 10 mg tapentadol free base equiv/kg, oral tapentadol valine carbamate 10 mg tapentadol free base equiv/kg, mean, read-out: Cmax of tapentadol valine carbamate): 93.9 ng/mL
Tmax ([3]; male, Sprague Dawley, rat, plasma, po, 10 mg tapentadol free base equiv/kg, oral tapentadol valine carbamate 10 mg tapentadol free base equiv/kg, median, read-out: Tmax of tapentadol valine carbamate): 1 h
concentration at 0.083 h ([4]; cynomolgus monkey, plasma, iv, 0.083 h): 790 ng/mL
concentration at 0.25 h ([4]; cynomolgus monkey, plasma, iv, 0.25 h): 783 ng/mL
concentration at 1 h ([4]; cynomolgus monkey, plasma, iv, 1 h): 222 ng/mL
concentration at 2 h ([4]; cynomolgus monkey, plasma, iv, 2 h): 92.3 ng/mL
concentration at 4 h ([4]; cynomolgus monkey, plasma, iv, 4 h): 11.8 ng/mL
concentration at 6 h ([4]; cynomolgus monkey, plasma, iv, 6 h): 3.21 ng/mL
Plasma concentration of tapentadol valine carbamate ([4]; 0 h): BLQ (BLQ Values less than LOQ (<0.5 ng/mL))
Plasma concentration of tapentadol valine carbamate ([4]; 0.083 h): 951 ng/mL and 914 ng/mL and 1166 ng/mL and 1024 ng/mL
